Test results from PubChem BioAssay (NCI).
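Grown in 96-well plates, cells were treated for 48 hours with each compound at five concentrations. Insufficient inhibition: endpoint recorded as highest concentration tested. TGI denotes the concentration required for complete inhibition of growth.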

Key:
Assay in all cases: NCI anticancer screen, dose series, 48 h
[1] = tested on: 786-0 renal
[2] = tested on: A549 NSCLC
[3] = tested on: ACHN renal
[4] = tested on: BT-549 breast
[5] = tested on: CAKI-1 renal
[6] = tested on: CCRF-CEM leukemia
[7] = tested on: COLO 205 colon
[8] = tested on: DU-145 prostate
[9] = tested on: EKVX NSCLC
[10] = tested on: HCT-116 colon
[11] = tested on: HCT-15 colon
[12] = tested on: HOP-62 NSCLC
[13] = tested on: HOP-92 NSCLC
[14] = tested on: HS 578T breast
[15] = tested on: HT29 colon
[16] = tested on: IGROV1 ovarian
[17] = tested on: K-562 leukemia
[18] = tested on: KM12 colon
[19] = tested on: LOX IMVI melanoma
[20] = tested on: M14 melanoma
[21] = tested on: MALME-3M melanoma
[22] = tested on: MDA-MB-231 breast
[23] = tested on: MDA-MB-435
[24] = tested on: MDA-N
[25] = tested on: MOLT-4 leukemia
[26] = tested on: NCI-H226 lung
[27] = tested on: NCI-H23 lung
[28] = tested on: NCI-H522 lung
[29] = tested on: NCI/ADR-RES ovarian
[30] = tested on: OVCAR-3 ovarian
[31] = tested on: OVCAR-4 ovarian
[32] = tested on: OVCAR-5 ovarian
[33] = tested on: OVCAR-8 ovarian
[34] = tested on: PC-3 prostate
[35] = tested on: RPMI-8226 leukemia
[36] = tested on: RXF 393 renal
[37] = tested on: SF-268 CNS
[38] = tested on: SF-295 CNS
[39] = tested on: SK-MEL-2 melanoma
[40] = tested on: SK-MEL-28 melanoma
[41] = tested on: SK-MEL-5 melanoma
[42] = tested on: SK-OV-3 ovarian
[43] = tested on: SN12C renal
[44] = tested on: SNB-19 CNS
[45] = tested on: SNB-75 CNS
[46] = tested on: SR leukemia
[47] = tested on: SW-620 colon
[48] = tested on: T-47D breast
[49] = tested on: TK-10 renal
[50] = tested on: U251 CNS
[51] = tested on: UACC-257 melanoma
[52] = tested on: UACC-62 melanoma
[53] = tested on: UO-31 renal
[54] = tested on: HL-60(TB) leukemia
[55] = tested on: MCF7 breast
[56] = tested on: NCI-H460 lung
[57] = tested on: SF-539 CNS
[58] = tested on: A498 renal
[59] = tested on: HCC-2998 colon

Measured: TGI

COc1cc(C2=C(C)[C@@H]3CN(CC=C3c3ccc(Cl)cc3)C2)c(S(=O)(=O)O)cc1OC
not listed: [54] | [55] | [56] | [57] | [58] | [59]
> 100 µM: all other assays above

CCOc1ncn(-c2ccc(NC(=S)Nc3cnccn3)cc2)n1
not listed: [5] | [7] | [10] | [12] | [19] | [34] | [35] | [40] | [41] | [47] | [58] | [59]
> 10 µM: all other assays above

CCNc1nc(N)c(C(=O)c2cccs2)s1
82.6 µM: [58] | [23]
60.7 µM: [25]
62.8 µM: [9]
36.6 µM: [45]
46.7 µM: [18]
22.8 µM: [7]
84.3 µM: [48]
72.4 µM: [15]
76 µM: [26]
50.3 µM: [16]
45 µM: [39]
46.4 µM: [57]
63.9 µM: [27]
59.9 µM: [5]
44.8 µM: [41]
77.6 µM: [31]
21.9 µM: [54]
20 µM: [36]
51.8 µM: [52]
not listed: [6] | [35] | [46]
> 100 µM: all other assays above

CSC1=C(C#N)C(=O)N(c2ccc(Cl)cc2)C(=O)C1C#N (stereo not drawn)
76.9 µM: [13]
not listed: [18] | [29] | [33] | [45]
> 100 µM: all other assays above

C=C1CC23CCC4C(C)(C(=O)O)CCCC4(C)C2CCC1C3 (stereo not drawn)
90.9 µM: [46]
75.5 µM: [9]
88.2 µM: [53]
89.7 µM: [28]
91.6 µM: [35]
39.5 µM: [7]
59.1 µM: [56]
78.6 µM: [59]
94.9 µM: [16]
94.3 µM: [13]
not listed: [25] | [29] | [41] | [54]
> 100 µM: all other assays above

C=C1C(=O)OC2/C=C(\C)C(=O)CC3OC(C)(C)OC3(C)CC(OC(=O)/C(C)=C/C)C12 (stereo not drawn)
32.3 µM: [16]
37.2 µM: [15] | [25]
34.9 µM: [59]
10.3 µM: [5]
> 23.4 µM: [54]
45.1 µM: [8]
47.2 µM: [32]
26.8 µM: [4]
38.1 µM: [13]
27.8 µM: [52]
> 91.2 µM: [41]
> 59.2 µM: [43]
> 70.3 µM: [20]
27.9 µM: [49]
> 44.1 µM: [10]
27.3 µM: [19]
> 47.9 µM: [1]
> 47.1 µM: [55]
> 68.2 µM: [23]
> 80.5 µM: [24]
28 µM: [21]
> 21.8 µM: [6]
16.6 µM: [3]
63.6 µM: [26]
46.2 µM: [56]
> 72.9 µM: [45]
19.8 µM: [11]
31.5 µM: [51]
> 75.2 µM: [50]
29.3 µM: [53]
34.2 µM: [9]
49.4 µM: [57]
57.8 µM: [27]
> 59.7 µM: [7]
> 61.3 µM: [37]
98.2 µM: [38]
98.7 µM: [47]
82.8 µM: [39]
38 µM: [18]
58 µM: [22]
59 µM: [34]
9.82 µM: [28]
41.5 µM: [31]
> 64.6 µM: [48]
86.5 µM: [40]
54.4 µM: [58]
> 68.9 µM: [33]
36.7 µM: [36]
> 60.9 µM: [17]
> 56.5 µM: [30]
not listed: [29] | [46]
> 100 µM: all other assays above
